Assays:
[1] = system: Trypanosoma congolense (T. congolense IL-3000 strain), bloodstream form; assay: Whole cell Alamar Blue assay, T. congolense (72 h in vitro); format: cell-based; settings: Trypanosoma congolense, 72 h, T. congolense IL-3000, 72 h in vitro Alamar Blue assay
Method: (§1) Activity of compounds 1–71 against T. congolense and T. vivax was determined using the whole cell assays as described ^6 and their IC50 values are summarized in Table 1.
(§2) [6] Assay methods for determination of T. c. and T. v. […] Culture media consisted of complete HMI-9 (IMDM) with 20% bovine serum. To ensure log growth phase, trypanosomes were sub-cultured at appropriate dilutions every 2–3 days. Bloodstream form Trypanosoma vivax (T. vivax) cannot be cultured axenically, therefore trypanosomes (T. vivax STIB719/ILRAD 560 strain) were harvested from a highly parasitemia mouse via cardiac puncture and used directly in the ex vivo drug sensitivity assay on the same day. […] Parasite starting concentrations of 2 × 10^5 (T. c.) and 4 × 10^5 (T. v.) were calculated respectively, using a cell analyzer system or haemo-cytometer, followed by quantification at 536 nm excitation and 588 nm emission wavelengths using a […] reader. Test compounds were prepared as 10 mg/mL DMSO stocks for each assay run. Compounds were assayed in at least three separate, independent test runs and an 11-point dilution curve was used to determine the IC50 values. Data points were averaged to generate sigmoidal dose-response curves and IC50 values were determined using Softmax Pro 5.2 software.

[2] = system: Trypanosoma vivax (T. vivax STIB719/ILRAD 560 strain), bloodstream form; assay: Whole cell Alamar Blue assay, T. vivax (48 h ex vivo); format: cell-based; settings: Trypanosoma vivax; T. vivax STIB719/ILRAD 560, 48 h ex vivo Alamar Blue assay
Method: as §1, §2

[3] = In vitro metabolic stability, mouse S9; format: in vitro ADME; settings: S9 fraction
Method: (§3) Selected compounds were screened in both mouse and bovine in vitro metabolic stability assays (mouse S9 and bovine S9), as summarized in Table 2. These two species were chosen because the primary in vivo assays were conducted in mice, and the target animal of this research program is cattle. […] We evaluated the efficacy of selected compounds in two in vivo mouse models of infection, against T. congolense and T. vivax, respectively. Mice were infected with either 1 × 10^5 T. c. parasites or 1 × 10^4 T. v. parasites, and then treated with a test compound via intraperitoneal administration for 1, 2 or 4 consecutive days. The mice were then monitored for the presence of parasitemia for up to 60 days post treatment.[7] We tested in T. c. model first, then followed up with T. v. for interesting compounds. […] We selected compound 5 (AN11736) to progress to exploratory studies to determine the efficacy and safety in a preliminary formulation against induced infections of T. vivax and T. congolense in cattle.[8]

[4] = In vitro metabolic stability, bovine S9; format: in vitro ADME; settings: S9 fraction
Method: as §3

[5] = system: T. c. parasites (STIB736/IL1180 strain); assay: In vivo mouse model of T. congolense infection; set-up: species or system NMRI female mice; settings: for Efficacy in mouse model T. c., n/m (mice survived / total mice in group): intraperitoneal, monitored 60 days post treatment; for curative efficacy in the T. c.-infected mouse model: single dose of 10 mg/kg, IP
Method: as §3
(§4) [7] Methods for testing compound efficacy in mouse models: In vivo mouse efficacy studies were performed at the Swiss TPH, using established mouse models of infection for T. c. and T. v. NMRI female mice were independently infected either with 1 × 10^5T. c. parasites/mouse (STIB736/IL1180 strain) or 1 × 10^4T. v. parasites/mouse (STIB719/ILRAD560 strain) using an intraperitoneal route. Parasitemia was allowed to develop over 7 days (T. c.) or 3 days (T. v.), respectively, before treatment was administered. Compounds were administered via intraperitoneal injection in 10% DMSO/water. Four mice were used per treatment group. Mice were monitored for the presence of trypanosomes, via tail blood examination microscopically with twice-per-week parasitemia checks for 60 days post treatment. Parasitemia was graded on a scale of 0–3, with 0 indicating no trypanosomes seen in 20 fields of view, 1 indicating the presence of 1–5 trypanosomes per field, 2 indicating the presence of 6–20 trypanosomes per field and 3 indicating greater than 20 trypanosomes per field. Mice scoring 2 or 3 were immediately euthanized. After 60 days, aparasitemic mice were considered cured. Untreated control mice survive on average for 10 and 6 days post infection for T. c. and T. v., respectively. All in vivo mouse experiments were conducted in accordance with the strict guidelines set out by the Swiss Federal Veterinary Office, under the ethical approval of license number #2813.

[6] = system: T. v. parasites (STIB719/ILRAD560 strain); assay: In vivo mouse model of T. vivax infection; set-up: species or system NMRI female mice; settings: for Efficacy in mouse model T. v., n/m (mice survived / total mice in group): intraperitoneal, monitored 60 days post treatment; for curative efficacy in the T. v.-infected mouse model: single dose of 10 mg/kg, IP
Method: as §3, §4

| SMILES | IC50 [1] [nM] | IC50 [2] [nM] | microsomal CLint [3] [µL/min/mg] | microsomal CLint [4] [µL/min/mg] | Efficacy in mouse model T. c., n/m (mice survived / total mice in group) ([5]; 1 × 10 mg/kg) | Efficacy in mouse model T. v., n/m (mice survived / total mice in group) ([6]; 1 × 10 mg/kg) | curative efficacy in the T. v.-infected mouse model [6] [%] | Efficacy in mouse model T. c., n/m (mice survived / total mice in group) ([5]; 2 × 10 mg/kg) | Efficacy in mouse model T. v., n/m (mice survived / total mice in group) ([6]; 2 × 10 mg/kg) | curative efficacy in the T. c.-infected mouse model [5] [%] | Efficacy in mouse model T. c., n/m (mice survived / total mice in group) ([5]; 4 × 10 mg/kg) | Efficacy in mouse model T. v., n/m (mice survived / total mice in group) ([6]; 4 × 10 mg/kg) |
| --- | --- | --- | --- | --- | --- | --- | --- | --- | --- | --- | --- | --- |
| Cc1c(C(=O)N[C@H](C(=O)OCc2ccc(C(F)(F)F)nc2)C(C)C)ccc2c1B(O)OC2 [Compound 33] | 0.28 | 26 | 6.3 | 2 | 3/4 (1 × 10) | 4/4 (1 × 10) | 100 |  |  |  |  |  |
| CC(C)[C@H](NC(=O)c1ccc2c(c1F)B(O)OC2)C(=O)OCc1ccc(F)cc1 [Compound 21] | 28 |  | < 1 | < 1 |  |  |  | 1/4 (2 × 10) | 4/4 (2 × 10) |  |  |  |
| Cc1c(C(=O)N[C@H](C(=O)OCC2CCCCC2)C(C)C)ccc2c1B(O)OC2 [Compound 62] | 0.38 | 0.16 | 10 | 20 | 2/4 (1 × 10) | 4/4 (1 × 10) | 100 |  |  | ≥ 50 |  |  |
| Cc1c(C(=O)N[C@H](C(=O)OCc2ccc(OCCN3CCCC3)cc2)C(C)C)ccc2c1B(O)OC2 [Compound 49] | 0.39 | 68 | 1.5 | 4 | 2/4 (1 × 10) | 4/4 (1 × 10) | 100 |  |  | ≥ 50 |  |  |
| Cc1c(C(=O)N[C@H](C(=O)OCC2CCOCC2)C(C)C)ccc2c1B(O)OC2 [Compound 63] | 0.39 | 0.09 | 0.9 | 1.5 | 1/4 (1 × 10) | 4/4 (1 × 10) |  |  |  |  |  |  |
| Cc1c(C(=O)N[C@H](C(=O)OCC2CCC(F)(F)CC2)C(C)C)ccc2c1B(O)OC2 [Compound 71] | 0.2 | 0.14 | 6.4 | 8.1 | 3/4 (1 × 10) | 4/4 (1 × 10) | 100 |  |  |  |  |  |
| Cc1c(C(=O)N[C@H](C(=O)OCc2ccc(F)cn2)C(C)C)ccc2c1B(O)OC2 [Compound 35] | 0.15 | 0.09 | 5.2 | 7.8 | 0/4 (1 × 10) |  |  |  |  |  |  |  |
| Cc1c(C(=O)N[C@H](C(=O)OCc2cccc(CN3CCN(C)CC3)c2)C(C)C)ccc2c1B(O)OC2 [Compound 52] | 1.3 | 0.29 | 1.8 | 6 | 0/4 (1 × 10) |  |  |  |  |  |  |  |
| CC(C)[C@H](NC(=O)c1ccc2c(c1C(F)F)B(O)OC2)C(=O)OCc1ccc(F)cc1 [Compound 22] | 0.67 | 0.92 | 1.4 | 0.9 | 0/4 (1 × 10) |  |  |  |  |  |  |  |
| Cc1c(C(=O)N[C@H](C(=O)OCc2ccc(F)cc2)C(C)(C)O)ccc2c1B(O)OC2 [Compound 29] | 0.26 | 0.1 | < 1 | < 1 | 0/4 (1 × 10) |  |  |  |  |  |  |  |
| Cc1c(C(=O)N[C@H](C(=O)OCc2ccc(F)c(Cl)c2)C(C)C)ccc2c1B(O)OC2 [Compound 16] | 0.08 | 0.07 | 15 | 8.9 | 1/4 |  |  | 4/4 |  |  |  |  |
| CC(C)[C@H](NC(=O)c1ccc2c(c1)B(O)OC2)C(=O)OCc1ccc(F)cc1 [Compound 20] | 3 | 1 | 1.5 | 1.3 |  |  |  |  |  |  | 0/5 (4 × 10) |  |
| Cc1c(C(=O)N[C@H](C(=O)OCc2ncc3ccccc3n2)C(C)C)ccc2c1B(O)OC2 [Compound 48] | < 0.005 | 0.71 | 4 | 23 | 1/4 (1 × 10) |  |  |  |  |  |  |  |
| CC(C)[C@H](NC(=O)c1ccc2c(c1)B(O)OC2)C(=O)OCc1ccccc1 [Compound 2] | 2 | 2 |  |  |  | 1/5 |  | 0/5 (2 × 10) |  |  |  | 5/5 |
| Cc1c(C(=O)N[C@H](C(=O)OCc2cc(F)c(F)c(F)c2)C(C)C)ccc2c1B(O)OC2 [Compound 18] | 0.2 | 0.06 | 9.7 | 3.1 | 1/4 (1 × 10) |  |  |  |  |  |  |  |
| Cc1c(C(=O)N[C@H](C(=O)OCc2cnccn2)C(C)C)ccc2c1B(O)OC2 [Compound 39] | 0.57 | 0.24 | 1.6 | 3.9 | 0/4 (1 × 10) |  |  |  |  |  |  |  |
| CC(C)c1c(C(=O)N[C@H](C(=O)OCc2ccc(F)cc2)C(C)C)ccc2c1B(O)OC2 [Compound 26] | 2.3 | 0.05 | 32 | 32 | 0/4 (1 × 10) |  |  |  |  |  |  |  |
| Cc1c(C(=O)N[C@H](C(=O)OCc2ccc(Cl)cc2)C(C)C)ccc2c1B(O)OC2 [Compound 6] | 0.47 | 2.9 | 17 | 9.1 | 0/4 (1 × 10) |  |  |  |  |  |  |  |
| Cc1c(C(=O)NC(C(=O)OCc2ccc(F)cc2)C(C)(C)F)ccc2c1B(O)OC2 (stereo not shown) [Compound 30] | 0.09 | 0.25 | 3.7 | 3.1 | 0/4 (1 × 10) |  |  |  |  |  |  |  |
| Cc1c(C(=O)N[C@H](C(=O)OCc2cccc(C#N)c2)C(C)C)ccc2c1B(O)OC2 [Compound 14] | 0.1 | 0.06 | 9.1 | 2.7 | 0/4 (1 × 10) |  |  |  |  |  |  |  |
| Cc1c(C(=O)N[C@H](C(=O)OCc2ccccc2)C(C)C)ccc2c1B(O)OC2 [Compound 4] | 0.46 | 0.79 |  |  |  | 4/4 |  | 4/5 (2 × 10) | 5/5 |  |  |  |
| Cc1c(C(=O)N[C@H](C(=O)OCc2ccc(S(C)(=O)=O)cc2)C(C)C)ccc2c1B(O)OC2 [Compound 19] | 0.61 | 0.44 | 2.6 | 1.3 | 0/4 (1 × 10) |  |  |  |  |  |  |  |
| COC(=O)[C@@H](NC(=O)c1ccc2c(c1C)B(O)OC2)C(C)C [Compound 55] | 4.2 | 3.3 | < 1 | 3.1 | 0/4 (1 × 10) |  |  |  |  |  |  |  |

From PMC5720837, “Identification of a 4-fluorobenzyl L-valinate amide benzoxaborole (AN11736) as a potential development candidate for the treatment of Animal African Trypanosomiasis (AAT)” (Bioorganic & Medicinal Chemistry Letters, 2018)
